ChEMBL document CHEMBL1140805, “1-Toluene-sulfonyl-3-[(3'-hydroxy-5'-substituted)-gamma-butyrolactone]-indoles: synthesis, COX-2 inhibition and anti-cancer activities” (Bioorg Med Chem Lett, 2008)

Tests used:
[1] = target: T1, Prostaglandin G/H synthase 1 (Ovis aries, UniProt P05979)
T1 sequence (P05979 whole entry): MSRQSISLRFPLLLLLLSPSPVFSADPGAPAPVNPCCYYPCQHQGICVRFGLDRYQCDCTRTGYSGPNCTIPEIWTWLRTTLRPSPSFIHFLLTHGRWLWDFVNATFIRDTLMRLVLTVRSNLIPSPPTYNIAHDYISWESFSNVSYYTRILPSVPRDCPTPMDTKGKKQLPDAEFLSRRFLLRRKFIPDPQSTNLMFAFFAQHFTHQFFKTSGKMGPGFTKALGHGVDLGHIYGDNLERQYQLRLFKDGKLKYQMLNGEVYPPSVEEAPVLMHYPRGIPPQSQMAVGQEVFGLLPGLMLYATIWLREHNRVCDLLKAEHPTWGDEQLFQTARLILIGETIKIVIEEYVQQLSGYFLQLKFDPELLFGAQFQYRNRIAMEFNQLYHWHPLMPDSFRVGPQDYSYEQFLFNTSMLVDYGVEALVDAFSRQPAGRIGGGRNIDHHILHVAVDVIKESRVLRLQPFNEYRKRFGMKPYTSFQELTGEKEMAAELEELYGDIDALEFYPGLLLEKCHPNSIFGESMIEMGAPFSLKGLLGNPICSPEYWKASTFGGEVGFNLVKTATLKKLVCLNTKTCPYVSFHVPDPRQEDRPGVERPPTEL

[2] = target: T2, Prostaglandin G/H synthase 1 (Ovis aries) (UniProt P05979); assay: Inhibition of ovine COX1 at 10 uM
T2 sequence (whole entry): T1 sequence (P05979 whole entry)

[3] = Partition coefficient, log P of the compound; type: physicochemical; conditions: octanol/water
Ovis aries = organism: Ovis aries; assay: Selectivity index, Ratio of IC50 for ovine COX2 to IC50 for ovine COX1

Structure (SMILES) | IC50 [1] | inhibition [2] | logP [3] | Ratio IC50 (Ovis aries)
CCSC[C@H]1C[C@](O)(c2cn(S(=O)(=O)c3ccc(C)cc3)c3ccccc23)C(=O)O1 | > 10 µM | 35% | 2.38 | < 1000
Cc1ccc(S(=O)(=O)n2cc([C@@]3(O)C[C@H](CSC#N)OC3=O)c3ccccc32)cc1 | < 10 µM | 65% | 1.78 | > 1000
CS(=O)(=O)c1ccc(C2=C(c3ccccc3)C(=O)OC2)cc1 | – | 75% | – | –
Cc1ccc(S(=O)(=O)n2cc([C@@]3(O)C[C@H](CI)OC3=O)c3ccccc32)cc1 | > 10 µM | 40% | 2.49 | –
